# Measurements: patent US20040082585A1, “Prodrugs of substituted polycyclic compounds useful for selective inhibition of the coagulation cascade” (Pharmacia Corporation, priority 2001, published 2004)
# Assays:
# [1] = Metabolic stability assay, hepatic S9 fraction incubation (rat); type: in vitro ADME; conditions: rat liver S9 fraction 2.0 mg/mL protein, 1.0 μM substrate, 1.0 mM NADPH, 37° C., 30 minutes
# Description: (§1) In order to determine the metabolic stability of each of the tested compounds, the following assay conditions were used: 100 mM-phosphate buffer, 1.0 mM NADPH, 3.3 mM magnesium chloride, 2.0 mg/mL protein from Hepatic S9 Fraction and 1.0 μM of substrate.
# (§2) The assay was performed on a 96-well conical shaped plate with a volume of 200 μL, after addition of methanol. For each species, a set of samples was prepared as shown below (volumes are in μL).
# (§3) The plate was sealed and incubated in a Thermal Mixer at 37° C. for 30 minutes at 400 rpm. 100 μL of methanol was added to each well and the plate was mixed for several minutes and then covered with an aluminum seal. Finally, the plate was centrifuged at 1000 rpm for 10 minutes.
# (§4) The assay was analyzed using liquid chromatography and positive ion electrospray mass spectrometry. The chromatography column used was Agilent Zorbax SB-C18 (3.0×150 mm, 5 μm) with a flow rate of 0.5 mL/min.
# (§5) Calculations were performed to determine the percent remaining, which is calculated by dividing the Peak Area Ratio of the analyte measured in the active protein versus the Peak Area Ratio of the analyte measured in the inactivated protein sample. The Peak Area Ratio is defined as the peak area of the analyte divided by the peak area of the internal standard. Analyte is defined as the substrate of a specific measurable metabolite.
# [2] = Metabolic stability assay, hepatic S9 fraction incubation (human); type: in vitro ADME; conditions: human liver S9 fraction 2.0 mg/mL protein, 1.0 μM substrate, 1.0 mM NADPH, 37° C., 30 minutes
# Description: as §1, §2, §3, §4, §5
# [3] = Bioavailability and prodrug conversion in male rats; type: in vivo; conditions: Crl:CD(SD)BR, rat, blood, fasted, oral 10 mg free base of active moiety per kg, IV 1 mg free base/kg, LC-MS/MS, read-out: BA (bioavailability of prodrug after oral adminstration)
# Description: Healthy male rats [Crl:CD(SD)BR] were obtained from Charles River Breeding Laboratory (Canada). […] The animals weighed 250 to 320 g and were individually identified by labeling on each metabolism cage. The rats were housed in individual metabolism cages during dosing and sample collections. The animals were acclimated to a diet of Purina Rodent Chow #5002 (Ralston Purina, St. Louis, Mo.) for at least 5 days and were fasted for 15-20 hours prior to the administration of the compound. Food was available from 4 hours after dose administration and ad libitum throughout the remainder of the study.
# Each animal received the prodrug orally at an equivalent dose of 10 mg of free base of active moiety per kg of body weight or active moiety orally at an equivalent dose of 10 mg equivalent free base per kg body weight. For intravenous (IV) study, the animals received 1 mg free base/kg body weight. Sufficient amount of the test article was dissolved in appropriate vehicle (See table below) such that the final concentration of dose solution was 2.0 mg free base/mL and 0.5 mg free base/mL for oral and IV doses, respectively. The dose volume was 5 mL/kg and 2 mL/kg for oral and IV doses, respectively
# Blood samples were collected from the jugular vein at specified time intervals. Concentrations of test article and/or prodrug were analyzed using a LC-MS/MS procedure.
# Model independent pharmacokinetic parameters (Cmax, Tmax, AUC, T1/2, CL, Vss) were obtained using Watson computer program. The bioavailability (BA) was calculated as follows: [formula]
# The percentages of conversion of prodrug to active moiety was calculated using the following equation: [formula]
# “AUC” represents area under the curve.
S9 Rat (percent remaining) [1] [%],S9 Hum. (percent remaining) [2] [%],bioavailability [3] [%],Compound
13,3,,CC(C)Nc1ncc(-c2cc(N)cc(C(F)(F)F)c2)n(CC(=O)NCc2ccc(C3=NOC(C)(c4ccccc4)N3)cc2)c1=O (stereo not shown) [Compound 25]
11,2,,CC(C)Nc1ncc(-c2cc(N)cc(C(F)(F)F)c2)n(CC(=O)NCc2ccc(C(=N)NO)cc2)c1=O [Compound 1]
1,1,,COc1ccc(OC(=O)O/N=C(\N)c2ccc(CNC(=O)Cn3c(-c4cc(N)cc(C(F)(F)F)c4)cnc(NC(C)C)c3=O)cc2)cc1 [Compound 24]
25,39,4,CC(C)Nc1ncc(-c2cc(N)cc(C(F)(F)F)c2)n(CC(=O)NCCc2c(F)c(F)c3c(N)noc3c2F)c1=O [Compound 15]
0,0,1,CC(C)Nc1ncc(-c2cc(N)cc(C(F)(F)F)c2)n(CC(=O)NCc2ccc3c(N)nc(=O)oc3c2)c1=O [Compound 9]
54,5,,CCOC(=O)O/N=C(\N)c1ccc(CNC(=O)Cn2c(-c3cc(N)cc(C(F)(F)F)c3)cnc(NC(C)C)c2=O)cc1 [Compound 7]
,,3,COC(=O)c1cc(N)cc(-c2cnc(NC(C)C)c(=O)n2CC(=O)NCc2ccc(C(=N)NO)cc2)c1 [Compound 12]
1,1,1,CCNC(=O)O/N=C(\N)c1ccc(CNC(=O)Cn2c(-c3cc(N)cc(C(F)(F)F)c3)cnc(NC(C)C)c2=O)cc1 [Compound 14]
0,0,,CC(C)COC(=O)O/N=C(\N)c1ccc(CNC(=O)Cn2c(-c3cc(N)cc(C(F)(F)F)c3)cnc(NC(C)C)c2=O)cc1 [Compound 16]
,,7,CC(C)Nc1ncc(-c2cc(N)cc(C(F)(F)F)c2)n(CC(=O)NCc2ccc3c(N)noc3c2)c1=O [Compound 6]
36,5,,CC(C)Nc1ncc(-c2cc(N)cc(NC(=O)C(C)C)c2)n(CC(=O)NCc2ccc(C(=N)NO)cc2)c1=O [Compound 18]
44,40,,CCCCOC(=O)O/N=C(\N)c1ccc(CNC(=O)Cn2c(-c3cc(N)cc(C(F)(F)F)c3)cnc(NC(C)C)c2=O)cc1 [Compound 11]
,,2,CC(C)Nc1ncc(-c2cc(N)cc(C(F)(F)F)c2)n(CC(=O)NCc2ccc(/C(N)=N/OC(=O)OC(C)C)cc2)c1=O [Compound 20]
3,1,20,CCONC(=N)c1ccc(CNC(=O)Cn2c(-c3cc(N)cc(C(F)(F)F)c3)cnc(NC(C)C)c2=O)cc1 [Compound 8]
14,17,,CC(C)Nc1ncc(-c2cc(N)cc(C(F)(F)F)c2)n(CC(=O)NCc2ccc(C(=N)NOCc3ccccc3)cc2)c1=O [Compound 29]
13,0.50,5,CC(C)Nc1ncc(-c2cc(N)cc(C(F)(F)F)c2)n(CC(=O)NCc2ccc(C3=NC(C)(C)ON3)cc2)c1=O [Compound 5]
0,0,17,CONC(=N)c1ccc(CNC(=O)Cn2c(-c3cc(N)cc(C(F)(F)F)c3)cnc(NC(C)C)c2=O)cc1 [Compound 4]
